Point of comparison: `COc1ccc(-c2cc(C(F)F)n3ncc(-c4ccncc4)c3n2)cc1`, melting point 206 °C. Against it:
- Nc1ccc(SCc2csc(NC=O)n2)cc1 — lower, 180 to 182 °C
- Cc1cccc(C2=CCN(CCCn3c(=O)[nH]c4cccc(C)c4c3=O)CC2)c1 — lower, 155 to 160 °C
- CCCC1=C([N+](=O)[O-])C(c2cccc3c2OCCC3)c2c[nH]nc2N1 (stereo not drawn) — higher, 234 °C
- Cc1ccnc(NCCSCc2nc[nH]c2C)c1C(=O)O — lower, 143 °C
- CC(=C1SCCCS1)c1cccc(OCC(=O)O)c1 — lower, 133 to 134 °C
- O=c1[nH]c2sccc2c2c([N+](=O)[O-])cccc12 — higher, 255 to 258 °C
- CCC(CC)(c1ccccc1F)c1c[nH]c2c(NS(C)(=O)=O)cccc12 — lower, 144 to 146 °C
- CCc1cccc2c(/C=C/C(=O)N3CCCCC3)cc(OC)c(O)c12 — lower, 85 to 86 °C
- Cc1nc2c(N)nc3ccccc3c2n1CCC(N)=O — higher, 237 to 239 °C
- C[C@H](N)C(=O)N(CC(=O)O)C1Cc2ccccc2C1 — lower, 180 to 182 °C
- Cc1c(C(=O)Nc2ccc(N3CCN(CCO)CC3)c(C#N)c2)cnn1C — higher, 228 to 230 °C
- COc1ccc2nc3c(cc2c1)c(C#N)nn3C — lower, 190 to 191 °C
- COc1ccccc1Cc1ccc(-c2cnn3c(O)ncnc23)cc1 — higher, 246 to 256 °C
- O=C(Oc1ccccc1)N1CCC2(CC1)SC(c1ccc(F)cc1)c1ccccc12 (stereo not drawn) — lower, 200 to 201 °C
- CC(C)(C)OC(=O)COc1ccc2sc(C(=O)Nc3ccccc3NC(=O)OC(C)(C)C)cc2c1 — lower, 166 °C
- COC(=O)C1(S(=O)(=O)N2CC=C(c3ccc(-c4ccccc4)c(C)c3)CC2)CCOCC1 — lower, 117 to 119 °C
- CCOC(=O)N(c1ccccc1-n1nc(C(=O)O)nc1CCl)c1cccc(C)c1C — lower, 188 to 190 °C
- CCc1cn2ccccc2c1S(=O)(=O)c1cc(C)c(OS(=O)(=O)c2ccc(C)cc2)c(C)c1 — lower, 161 °C
- N#CC(=Cc1ccc(O)c(O)c1)C(=O)NCCCNC(=O)C(C#N)=Cc1ccc(O)c(O)c1 — higher, 274 °C
- O=C(Nc1cccc([N+](=O)[O-])c1)C(F)(F)C(F)(F)F — lower, 111 to 113 °C
- CC(C)Oc1ccc(CN/C=C2\C(=O)NC(=O)c3ccc(Br)cc32)cc1O — higher, 212 to 213 °C
- CN(C(=O)C1CC1)c1cccc(-c2ccnc3c(C(=O)c4ccco4)cnn23)c1 — higher, 207 to 209 °C
- CCCCC(C(=O)OCC)S(=O)(=O)c1ccc(OC)cc1 (stereo not drawn) — lower, 62 °C
- O=C(c1ccc(Cl)cc1Cl)N1CCC(=NO)c2ccc(Cl)cc21 — higher, 231 to 232 °C
- CC(C)(C)OC(=O)N1CCC(C(=O)N2CCc3ccc4[nH]c(=O)c(=O)[nH]c4c3C2)CC1 — higher, 283 to 286 °C
- COc1ccc(C(O)(Cc2ccncc2)c2ccccc2)c2c1OC(C)(C)C2 (stereo not drawn) — lower, 78 to 81 °C
- O=c1[nH]c2cc([N+](=O)[O-])c(S(=O)(=O)NCCO)cc2[nH]c1=O — higher, 281 to 289 °C
- COC(=O)C1CC(Oc2ccc([N+](=O)[O-])cc2)CN1C(=O)C1(C)CCc2c(C)c(O)c(C)c(C)c2O1 (stereo not drawn) — lower, 103 to 105 °C
- COc1cc(C(=O)OC(C)(C)C)ccc1Cn1cc(C=O)c2ccc(C(=O)NCC3CCCC3)cc21 — lower, 134 to 135 °C
- COc1ccc(-c2cn3c(n2)-c2ccccc2CC3)cc1 — lower, 179 to 181 °C
- CCOC(=O)Cc1cccc2c(-c3ccccc3)onc12 — lower, 97 to 98 °C
- O=C(Nc1ccc([N+](=O)[O-])c(C(F)(F)F)c1)c1ccccc1SSc1ccccc1C(=O)Nc1ccc([N+](=O)[O-])c(C(F)(F)F)c1 — lower, 167 to 169 °C
- CCN(CC)CCOc1ccc(Nc2ncc3c(n2)N(C)C(=O)N(Cc2ccc(OC)cc2)C3)cc1 — lower, 112 °C
- NC(=O)NC[C@@H]1CCCc2cc(S(=O)(=O)c3cccc(F)c3)cc(F)c21 — lower, 194 °C
- CN(CP(=O)(O)O)C1CCS(=O)(=O)C1 (stereo not drawn) — higher, 222 to 225 °C
- C=CS(=O)CCNC(=O)NC(=O)CCCl (stereo not drawn) — lower, 113 to 135 °C
- O=c1cc(CO)oc(-c2ccccc2)c1O — lower, 151 to 154 °C
- CC(C)Cn1c(N)nc2c(N)nc3ccccc3c21 — higher, > 250 °C
- CC1(COC(=O)N2CCN(c3ccc(OC(F)(F)F)cc3)CC2)Cn2cc([N+](=O)[O-])nc2O1 (stereo not drawn) — lower, 138 to 140 °C
- C[C@H](CO)Nc1cc(-n2cccn2)nc(-c2cccs2)n1 — lower, 136 to 137 °C
- COc1cc2nc(Cl)nc(N3CCN(C(=O)Nc4ccc(Oc5ccccc5)cc4)CC3)c2cc1OC — lower, 178 to 179 °C
- CCOC(=O)Cc1ccc(NC(=O)C(COc2ccccc2)NS(=O)(=O)c2ccc(Br)cc2)cc1 (racemic) — lower, 150 to 153 °C
- Nc1ccc(-c2cccc(C(F)(F)F)c2)nn1 — lower, 138 to 139 °C
- CS(=O)(=O)C(Cl)(Cl)C(=O)c1ccccc1Cl — lower, 81 to 82 °C
- O=C(NC(CCCN1CCN(c2ncc(F)cn2)CC1)c1ccc(F)cc1)c1ccc(F)cc1 (stereo not drawn) — lower, 147 to 148 °C
- O=C(OC1CCN(Cc2ccccc2)CC1)c1ccccc1[N+](=O)[O-] — lower, 98 to 99 °C
- CC(C)Oc1cc(CCCNC(=O)NS(=O)(=O)c2ccccc2)n(Cc2ccc(Cl)cc2Cl)n1 — lower, 149 °C
- Cn1c(COc2ccc(CC3SC(=O)NC3=O)cc2)nc2cncnc21 (stereo not drawn) — higher, 244 to 246 °C
- O=[N+]([O-])c1cc(OCc2ccccc2)ccc1CCCl — lower, 38 to 40 °C
- Cc1nn(-c2ccc(C#N)c(Cl)c2)c(C)c1Cc1ccc(C(=O)N2CCC(O)CC2)cc1 — lower, 153 to 154 °C
- O=C(Nc1nc(=O)c2cnn3c2n1CC=C3c1cccc(C(F)(F)F)c1)OCC(Cl)(Cl)Cl — higher, 225 to 226 °C
- CC(=O)NC[C@H]1CN(c2ccc(N3CCC(n4nnc(N5CCOCC5)n4)CC3)c(F)c2)C(=O)O1 — higher, 210 to 214 °C
- O=C(O)CCc1c(C(=O)O)[nH]c2cc(Br)cc(Br)c12 — higher, 259 °C
- Oc1ccccc1-c1nc(-c2ccccc2O)n(CC(F)(F)F)n1 — lower, 154 to 156 °C
- CN1CCC(O)(c2csc3ccccc23)CC1 — lower, 150 to 151 °C
- N#Cc1c(Br)[nH]c(-c2ccccc2)c1C#N — higher, 225 to 258 °C
- CC(C)(C)OC(=O)NCCCSc1ccncc1 — lower, 72 to 74 °C
- CS(=O)(=O)OCC(Oc1ccc(F)c(C(N)=O)c1F)c1nc(-c2ccc(C(F)(F)F)cc2)c(Cl)o1 (stereo not drawn) — lower, 163 °C
- CCOC(=O)c1c(C)nc(N2CCN(C)CC2)c([N+](=O)[O-])c1N — lower, 73 to 75 °C
- CN(SN(C)C(=O)F)C(=O)F — lower, 40 to 41 °C
- COC(=O)c1cc(S(=O)(=O)c2ccc(C)cc2)cc(OC)c1OC — lower, 114 °C
- CC(C)(C)NCC(O)COc1ccc2c(=O)cc(-c3cc(OCc4ccccc4)cc(OCc4ccccc4)c3)oc2c1 (stereo not drawn) — lower, 170 to 171 °C
- CC(C)c1nc2c(N)nc3ccccc3c2n1CCOc1ccccc1 — higher, 229 to 231 °C
- O=[N+]([O-])c1ccccc1NCc1cc(F)cc(F)c1 — lower, 104 to 105 °C
- CCOc1cccc2cc(C(=O)C34CC5CC(CC(C5)C3)C4)oc12 — lower, 84 to 86 °C
- COc1cc(OC)c(C(=O)C=Cc2ccc(C)cc2)c(OP(=O)(O)O)c1 — lower, 81 to 83 °C
- CCCCNc1cccc(O)c1 — lower, 35 °C
- CC(=S)Nc1ccc[nH]1 — lower, 93 to 94 °C
- CS(=O)c1ccc(-c2nc(-c3nc4ccccc4c(=O)[nH]3)ccc2OCCO)cc1 (stereo not drawn) — higher, 261 to 262 °C
- CC(=O)c1c(-c2ccccc2)n(C)c2ccccc12 — lower, 76 to 77 °C
- CC12CCC(O)CC1=CCC1C2CCC2(C)C(n3ccnc3)=CCC12 (stereo not drawn) — higher, 220 to 223 °C
- CN(C)C1(c2ccccc2)CCC(=CC(=O)NCCCc2c[nH]c3ccccc23)CC1 (stereo not drawn) — lower, 85 to 87 °C
- CCc1nc(-c2nn(Cc3ccccc3F)c3ccccc23)oc1CO — lower, 144 °C
- CC(C)C[C@H](NC(=O)OC(C)(C)C)C(=O)NCCCC(c1ccc(F)cc1)c1ccc(F)cc1 — lower, 50 to 55 °C
- N=C(Nc1ccccc1C(F)(F)F)NC12CC3CC(CC(C3)C1)C2 — higher, 259 to 260 °C
- COc1ccccc1NC(=O)C1=C(O)c2ccc3ccccc3c2S(=O)(=O)N1C — lower, 198 to 200 °C
- Fc1cc(Cl)c(OC(F)F)cc1-c1ncnc(C(F)F)c1Cl — lower, 56 to 57 °C
- COC(=O)C(=Cc1ccc2c(c1)OCO2)C(=O)c1cccc(OCc2ccccc2)c1 — lower, 116 to 118 °C
- CCN(CC)S(=O)(=O)c1ccccc1N — lower, 45 to 51 °C
- COC(=O)CCCCCOc1ccc(NC(=O)COCc2ccccc2)cc1 — lower, 46 to 49 °C
- CCc1cc(/C=C/[N+](=O)[O-])ccc1N=C1SCC2(CCCC2)N1C1CCCC1 — lower, 141 to 142 °C
- C=CCn1c(C)nc2c3c(c(C(=O)OC)cc21)CCC1(Cc2ccccc2C1)N3 — lower, 142 °C
- Oc1ccc2c(c1)COc1c-2cc2ccc(O)cc2c1-c1ccccc1F — higher, 240 to 242 °C
- O=C(O)CCc1cn(Cc2ccc(OCc3cccnc3)cc2)cc1-c1ccccc1 — lower, 131 to 132 °C
- C#Cc1ccc(S(N)(=O)=O)s1 — lower, 114 to 116 °C
- CCN1CCN(c2nc(C)c(C(=O)NCc3cccnc3)s2)C1=O — lower, 163 to 164 °C
- COc1ccc2c(c1)C13CCCC4OC41C(C2)N(C(=O)C1CC1)CC3 (stereo not drawn) — lower, 134 to 136 °C
- CC(=O)O[C@H]1[C@H](NC(C)=NC#N)c2cc(C#N)ccc2OC1(C)C (relative stereo) — higher, 236 to 238 °C
- COc1cccc(-c2cc(O)c(SCc3ccccc3)c(=O)o2)c1 — lower, 146 to 147 °C
- CNc1cc(C(O)CS(C)(=O)=O)cc(N(C)C(C)=O)c1C (stereo not drawn) — lower, 191 to 192 °C
- CC1=NC(NC(=O)CCc2ccc(Cl)cc2Cl)C(=O)N(C)c2ccccc21 (stereo not drawn) — lower, 194 to 195 °C
- O=C(Nc1nc(C(=O)NC2CN3CCC2CC3)cs1)c1ccc(OCc2ccccc2)cc1 (stereo not drawn) — lower, 196 °C
- CCCCc1cn(CCC)c(=O)n1Cc1ccc(-c2ccccc2-c2nnn[nH]2)nc1 — lower, 164 to 165 °C
- O=c1oc(-c2ccccc2)cc(O)c1C(CC1CCCC1)SC1CCCCC1 (stereo not drawn) — lower, 157 to 160 °C
- NC(=O)N(O)CC1CCCCC1 — lower, 143 to 144 °C
- O=C(NCc1ccc(Cl)cc1)c1cn(CCN2CCCC2)c2sc(CN3CCOCC3)cc2c1=O — lower, 178 to 180 °C
- CCOC(=O)[C@H](Cc1ccc(-c2c(OC)cc(CO)cc2OC)cc1)NC(=O)c1c(Cl)cccc1Cl — lower, 121 °C

From a melting point compilation (Tetko et al.; mined from patent text by program, amines drawn as free bases though some values may be those of a salt)
